# Where two headings read alike, the source gives them in different places.
# T1: Cyp7b (Mus musculus, UniProt Q60991)
# T1 sequence (Q60991 1-507): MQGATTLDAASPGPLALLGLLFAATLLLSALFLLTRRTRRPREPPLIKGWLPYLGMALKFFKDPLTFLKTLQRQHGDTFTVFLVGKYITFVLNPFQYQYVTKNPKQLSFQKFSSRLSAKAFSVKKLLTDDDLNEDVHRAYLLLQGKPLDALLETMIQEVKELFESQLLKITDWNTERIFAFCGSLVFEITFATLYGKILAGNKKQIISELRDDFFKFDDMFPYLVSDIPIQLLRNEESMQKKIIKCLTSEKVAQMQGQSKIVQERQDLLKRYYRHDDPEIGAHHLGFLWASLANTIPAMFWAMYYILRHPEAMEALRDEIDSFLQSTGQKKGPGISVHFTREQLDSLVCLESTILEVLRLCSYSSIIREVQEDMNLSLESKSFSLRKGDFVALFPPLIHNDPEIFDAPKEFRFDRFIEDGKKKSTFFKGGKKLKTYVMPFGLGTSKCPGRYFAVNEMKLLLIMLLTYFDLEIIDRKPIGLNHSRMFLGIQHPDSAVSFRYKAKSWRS
# T2: GR (Homo sapiens, UniProt P04150)
# T2 construct: expressed in transfected cells; host or cells: CHO cells, calcium phosphate transfection
# T2 sequence (P04150 1-777): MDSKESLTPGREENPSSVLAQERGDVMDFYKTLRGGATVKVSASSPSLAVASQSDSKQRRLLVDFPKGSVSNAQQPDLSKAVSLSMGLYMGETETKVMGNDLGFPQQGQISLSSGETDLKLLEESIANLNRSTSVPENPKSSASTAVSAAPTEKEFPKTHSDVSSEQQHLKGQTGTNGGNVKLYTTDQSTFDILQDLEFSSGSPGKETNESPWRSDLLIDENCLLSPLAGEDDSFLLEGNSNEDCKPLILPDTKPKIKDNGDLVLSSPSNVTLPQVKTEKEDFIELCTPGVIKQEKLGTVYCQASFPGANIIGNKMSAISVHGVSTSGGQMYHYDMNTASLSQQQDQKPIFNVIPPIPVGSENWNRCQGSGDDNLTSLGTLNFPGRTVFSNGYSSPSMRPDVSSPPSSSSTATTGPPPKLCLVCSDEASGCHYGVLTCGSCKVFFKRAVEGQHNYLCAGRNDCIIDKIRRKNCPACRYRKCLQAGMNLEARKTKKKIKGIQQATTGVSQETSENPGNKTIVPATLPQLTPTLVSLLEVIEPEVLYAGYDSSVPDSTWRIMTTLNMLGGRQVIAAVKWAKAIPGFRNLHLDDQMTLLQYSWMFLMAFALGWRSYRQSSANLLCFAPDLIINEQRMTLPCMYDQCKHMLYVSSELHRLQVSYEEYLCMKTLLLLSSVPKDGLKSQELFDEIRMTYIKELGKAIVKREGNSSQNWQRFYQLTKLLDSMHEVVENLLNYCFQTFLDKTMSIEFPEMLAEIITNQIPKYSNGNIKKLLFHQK
# B1: Cyp7b (Mus musculus) (protein)
# chain: T1 sequence (Q60991 1-507)
# Tests used:
# Cyp7b [1] = molecular target: T1, Cyp7b; experiment: Catalytic activity of Cyp7b expressed in mammalian cell lines (NADPH-dependent conversion, TLC)
# Description: To examine the catalytic activity of the enzyme Cyp7b CDNAs were expressed in mammalian cell lines.
# GR = molecular target: T2, GR; experiment: Cis-trans co-transfection assay (MMTV-LUC / pRShGR) in CHO cells; assay type: cell-based; conditions: in presence of a GR activating concentration of corticosterone, FIG. 4
# Procedure: Chinese hamster ovary (CHO) cells were maintained and transfected in Dulbecco's modification of Eagle's medium (DMEM) supplemented with 15% foetal bovine serum, 100 IU/ml penicillin, 100 μg/ml streptomycin and […] L-glutamine (all Gibco BRL, Paisley, UK).
# 24 hours prior to transfection CHO cells were plated at a density of 3×10^5/60 mm dish (Costar UK). Cells were transfected by the clacium phosphate method. Briefly, 5 μg of MMTV-LUC and 1 μg of pRShGR or 5 μg of pSV2 as a control for transfection efficiency were made up to a total of 10 μg/plate of DNA with pGEM3. 30 μl of 2.5M CaCl2 was diluted ten-fold with sterile water and 300 μl was added to the DNA. […]
# The following day the cells were washed in PBS, lysed with 0.3 ml of lysis buffer (25 mM Tris-phosphate pH 7.8, 2 mM DTT, 1% Triton X-100 and 10% glycerol), scraped, centrifuged and the supernatant assayed in duplicate in a Berthold luminometer in a total volume of 250 μl, comprising 40 μl of cell extract, 5 μl of 30 mM ATP, 100 μl of assay buffer (20 mM tricine, […] (MgCO3)4.Mg(OH)2.%H2O, 2.67 mM MgSO4, Q1 mM EDTA, 33.3 mM DTT, 0.2 mg/ml coenzyme A) and 105 μl luciferin (Promega UK) injected to initiate the reaction. Light emission was measured over 10 seconds and relative light units/microgram of protein was calculated.
# Cyp7b [2] = molecular target: T1, Cyp7b
# Cyp7b [3] = molecular target: T1, Cyp7b; remark: listed apart in the source
# [4] = substrate: C[C@]12CC[C@H](O)CC1=CC[C@@H]1[C@@H]2CC[C@]2(C)C(=O)CC[C@@H]12; experiment: purified protein, by the assay type; conditions: other: cell extracts, NADPH-dependent conversion
# [5] = relative to DHEA and pregnenolone
# [6] = cell extracts, NADPH-dependent conversion
molecule,measurement,setting,value
"C[C@]12CC[C@H](O)C[C@@H]1CC[C@@H]1[C@@H]2CC[C@]2(C)[C@@H](O)CC[C@@H]12 [5α-androstane-3β, 17β-diol]",activity of the expressed enzyme against the steroid as substrate,Cyp7b [1]; [5],less active
"C[C@]12CC[C@H](O)CC1=C[C@@H](O)[C@@H]1[C@@H]2CC[C@]2(C)C(=O)CC[C@@H]12 [7HD, 7α-hydroxydehydroepi-androsterone]",antagonism of corticosterone effect in activating GR-mediated transcription (fold induction of luciferase),GR,acts as an antagonist
C[C@]12CC[C@H]3[C@@H](CCC4=CC(=O)CC[C@@]43C)[C@@H]1CC[C@@H]2O [testosterone],activity of the expressed enzyme against the steroid as substrate,Cyp7b [1]; [5],low to undetectable activity
same,conversion of labelled steroid by Cyp7b microsomes to a lower mobility form on TLC,Cyp7b [2],"at best inefficiently metabolised, if at all"
CC(=O)[C@H]1CC[C@H]2[C@@H]3CC=C4C[C@@H](O)CC[C@]4(C)[C@H]3CC[C@]12C [pregnenolone],Km,Cyp7b [1]; [6],3.6 µM
same,Vmax,Cyp7b [1]; [6],34 pmol/min/mg
same,conversion of labelled steroid by Cyp7b microsomes to a lower mobility form on TLC,Cyp7b [2],converted by the enzymes
same,release of 3H into the aqueous phase,Cyp7b [3],efficiently released
C[C@]12C[C@H](O)[C@H]3[C@@H](CCC4=CC(=O)CC[C@@]43C)[C@@H]1CC[C@@H]2C(=O)CO [corticosterone],activity of the expressed enzyme against the steroid as substrate,Cyp7b [1],low to undetectable activity
same,conversion of labelled steroid by Cyp7b microsomes to a lower mobility form on TLC,Cyp7b [2],"at best inefficiently metabolised, if at all"
"C[C@]12CC[C@H](O)CC1=CC[C@@H]1[C@@H]2CC[C@]2(C)C(=O)CC[C@@H]12 [DHEA, dehydroepiandrosterone]",antagonism of corticosterone effect in activating GR-mediated transcription (fold induction of luciferase),GR,not
same,conversion of labelled steroid by Cyp7b microsomes to a lower mobility form on TLC,Cyp7b [2],converted
CC(=O)[C@H]1CC[C@H]2[C@@H]3CCC4=CC(=O)CC[C@]4(C)[C@H]3CC[C@]12C [progesterone],conversion of labelled steroid by Cyp7b microsomes to a lower mobility form on TLC,Cyp7b [2],"at best inefficiently metabolised, if at all"
C[C@H](CCCC(C)(C)O)[C@H]1CC[C@H]2[C@@H]3CC=C4C[C@@H](O)CC[C@]4(C)[C@H]3CC[C@]12C [25-hydroxycholesterol],activity of the expressed enzyme against the steroid as substrate,Cyp7b [1],less active
same,conversion of labelled steroid by Cyp7b microsomes to a lower mobility form on TLC,Cyp7b [2],converted by the enzymes
"C[C@]12CC[C@@H]3c4ccc(O)cc4CC[C@H]3[C@@H]1CC[C@@H]2O [estradiol, 17β-estradiol]",activity of the expressed enzyme against the steroid as substrate,Cyp7b [1],less active
same,conversion of labelled steroid by Cyp7b microsomes to a lower mobility form on TLC,Cyp7b [2],converted by the enzymes
C[C@]12CCC(=O)C=C1CC[C@@H]1[C@@H]2[C@@H](O)C[C@@]2(C)[C@H]1CC[C@]2(O)C(=O)CO [cortisol],conversion of labelled steroid by Cyp7b microsomes to a lower mobility form on TLC,Cyp7b [2],"at best inefficiently metabolised, if at all"
B1,Km,[4],13.3 µM
same,Vmax,[4],288 pmol/min/mg

# — patent US6420353B1, “Use of 7 α-substituted steroid to treat neuropsychiatric, immune or endocrine disorders” (BTG International Limited, priority 1996, dated 2002)
